Assay [1] has as its system pCHK1 (S345) in Colo320 DM cells. Description: Alphalisa assay, detection of pCHK1 (S345) in Colo320 DM cells. Format: cell-based, human. The conditions noted are these: compound overnight (approximately 16 hours). Here is the method:
Colo320 DM cells (ATCC #CCL-220, derived from human colorectal adenocarcinoma, Dukes' type C) were seeded on a […], cell culture treated assay plate at a density of 50,000 cells/well in 200 μL of RPMI-1640 media supplemented with 10% Fetal Bovine Serum and incubated at 37° C. overnight. The following day, test compound dilutions were added directly to the plated cells by a Tecan digital dispenser to a final DMSO concentration of <0.5%. and incubated at 37° C. overnight (approximately 16 hours). The following day all cell culture media was removed from the cells. 75 μL of 1×AlphaLisa lysis buffer was added to each well and plates were agitated on a shaker for 30 minutes at room temperature. The lysis of cells and detection of pCHK1 (S345) were performed with reagents contained within the AlphaLisa Sure Fire assay kit (Perkin Elmer #ALSU-PCHK1-A) according to the manufacturer's instructions. 10 μL of each lysate was then transferred to a white, 384-well assay plate (Perkin Elmer #6008280). 5 μL of Acceptor mix was then added to each well of lysate in the white, 384-well assay plate and incubated in the dark at room temperature for 60 minutes. 5 μL of Donor mix was then added to each well of the white, 384-well assay plate in subdued light and incubated at room temperature for 60 minutes. Plates were read on an Alpha Technology-compatible plate reader using standard AlphaLisa settings.
In general terms: Alpha assays give light when donor and acceptor beads are brought close together.

Assay [2] has as its target T1, RNR (RNR1:RNR2 1:1) (Homo sapiens, UniProt P23921).
T1 sequence (P23921 1-792): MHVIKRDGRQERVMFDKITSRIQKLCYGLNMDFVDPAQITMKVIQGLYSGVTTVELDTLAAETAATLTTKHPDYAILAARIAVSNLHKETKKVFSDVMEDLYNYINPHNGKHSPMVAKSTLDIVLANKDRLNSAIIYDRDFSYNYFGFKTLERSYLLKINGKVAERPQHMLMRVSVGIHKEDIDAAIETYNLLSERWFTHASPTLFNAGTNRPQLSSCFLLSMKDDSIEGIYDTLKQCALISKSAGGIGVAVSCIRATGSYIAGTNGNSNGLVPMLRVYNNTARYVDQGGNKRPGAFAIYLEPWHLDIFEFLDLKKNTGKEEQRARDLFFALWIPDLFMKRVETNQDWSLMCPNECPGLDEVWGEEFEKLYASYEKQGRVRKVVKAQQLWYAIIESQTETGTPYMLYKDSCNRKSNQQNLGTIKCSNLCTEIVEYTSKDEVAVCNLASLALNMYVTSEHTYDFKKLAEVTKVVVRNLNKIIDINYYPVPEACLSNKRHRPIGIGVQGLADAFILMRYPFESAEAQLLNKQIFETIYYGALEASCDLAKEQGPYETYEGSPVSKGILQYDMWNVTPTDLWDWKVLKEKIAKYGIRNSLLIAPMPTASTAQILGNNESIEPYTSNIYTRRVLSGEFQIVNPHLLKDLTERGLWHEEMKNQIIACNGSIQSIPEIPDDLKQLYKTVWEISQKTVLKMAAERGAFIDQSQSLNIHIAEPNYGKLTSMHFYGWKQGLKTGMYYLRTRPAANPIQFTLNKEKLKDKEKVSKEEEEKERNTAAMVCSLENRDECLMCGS
Description: RNR enzyme activity, rapid-fire mass spectrometry (RF/MS) assay. The assay is classed as biochemical. The conditions noted are these: [RNR] 50 nM, 1:1 RNR1:RNR2; CDP 5 μM; ATP 1 mM; 37° C., 45 min; compounds screened up to 50 μM. Here is the method:
A rapid-fire mass spectrometry (RF/MS) assay was used to assess RNR enzyme activity using a 384 well plate and a robotic platform.
The plate layout included two validated reference compounds (Triapine (3-AP) and Hydroxyurea (HU)): • A dose response in duplicate; top concentration: 5 μM (3-AP) and 250 μM (HU), semi-log dilutions. • Spike wells in triplicate randomly spotted at four concentrations: • 250 μM, 100 μM, 30 μM and 2 μM for HU • 5 μM, 2 μM, 0.6 μM and 0.04 μM for 3-AP
First, the multidrop pipes were saturated for 30 minutes with enzymatic solution. Then 30 μL of Stop solution was distributed in column 24. Next, 15 μL of enzyme was distributed in column 1 to 24. Next, a pre-incubation step of 15 minutes at room temperature occurred, followed by distribution of 15 μL of substrate solution (column 1 to 24). Next, the plate was incubated for 45 minutes at 37° C. 30 μL of Stop solution was then distributed to columns 1 to 23.
The final parameters for the enzyme reactions were: • Incubation: 37° C., 45 min • [CDP]: 5 μM; [ATP]: 1 mM; [NADPH]: No • [RNR]final: 50 nM with 1:1 (RNR1:RNR2) ratio • Final volume: 30 μL • Stop solution: 6% HCOOH in water

As usually defined, the IC50 is the point on the concentration scale where inhibition reaches its midpoint. High values mean a need for much substance, low ones inhibition by little substance. For the compound `Cc1ccc(F)c([C@@H](C)[C@@H](c2n[nH]c(=O)o2)N2CN([C@@H]3CCN(C)C3)c3cc(Cl)ccc3S2(=O)=O)c1C` [Example 74, 5-((1S,2R)-1-(6-chloro-4-((R)-1-methylpyrrolidin-3-yl)-1,1-dioxido-3,4-dihydro-2H-benzo[e][1,2,4]thiadiazin-2-yl)-2-(6-fluoro-2,3-dimethylphenyl)propyl)-1,3,4-oxadiazol-2 (3H)-one], the IC50 was not above 1000 nM in assay [1] (Homo sapiens, COLO 320DM) and less than 20 nM in assay [2].

`Cc1ccc(F)c([C@@H](C)[C@@H](c2n[nH]c(=O)o2)N2CN(CCCN(C)C)c3cc(Cl)ccc3S2(=O)=O)c1C` [Example 34, 5-((1S,2R)-1-(6-chloro-4-(3-(dimethylamino)propyl)-1,1-dioxido-3,4-dihydro-2H-benzo[e][1,2,4]thiadiazin-2-yl)-2-(6-fluoro-2,3-dimethylphenyl)propyl)-1,3,4-oxadiazol-2 (3H)-one]: the IC50 is 1000 to 5000 nM in assay [1] (Homo sapiens, COLO 320DM) and less than 20 nM in assay [2].

In the case of `Cc1ccc(F)c([C@@H](C)[C@@H](c2n[nH]c(=O)o2)N2CN(CCN3CCCC3)c3cc(Cl)ccc3S2(=O)=O)c1C` [Example 80, 5-((1S,2R)-1-(6-chloro-1,1-dioxido-4-(2-(pyrrolidin-1-yl)ethyl)-3,4-dihydro-2H-benzo[e][1,2,4]thiadiazin-2-yl)-2-(6-fluoro-2,3-dimethylphenyl)propyl)-1,3,4-oxadiazol-2 (3H)-one], the IC50 was not above 1000 nM in assay [1] (Homo sapiens, COLO 320DM) and less than 20 nM in assay [2].

With `Cc1ccc(F)c([C@@H](C)[C@@H](c2n[nH]c(=O)o2)N2CN(C3CCN(C)CC3)c3cc(Cl)ccc3S2(=O)=O)c1C` [Example 47, 5-((1S,2R)-1-(6-chloro-4-(1-methylpiperidin-4-yl)-1,1-dioxido-3,4-dihydro-2H-benzo[e][1,2,4]thiadiazin-2-yl)-2-(6-fluoro-2,3-dimethylphenyl)propyl)-1,3,4-oxadiazol-2 (3H)-one], the IC50 was 1000 to 5000 nM in assay [1] (Homo sapiens, COLO 320DM) and less than 20 nM in assay [2].

Take `Cc1ccc(F)c([C@@H](C)[C@@H](c2n[nH]c(=O)o2)N2CN([C@@H]3CCOC[C@H]3F)c3cc(Cl)ccc3S2(=O)=O)c1C` [Example 97, 5-((1S,2R)-1-(6-chloro-4-((3S,4R)-3-fluorotetrahydro-2H-pyran-4-yl)-1,1-dioxido-3,4-dihydro-2H-benzo[e][1,2,4]thiadiazin-2-yl)-2-(6-fluoro-2,3-dimethylphenyl)propyl)-1,3,4-oxadiazol-2 (3H)-one]: the IC50 in assay [1] (Homo sapiens, COLO 320DM) was not above 1000 nM; in assay [2], less than 20 nM.

For the compound `Cc1ccc(F)c([C@@H](C)[C@@H](c2n[nH]c(=O)o2)N2CN(CCCO)c3cc(Cl)ccc3S2(=O)=O)c1C` [Example 79, 5-((1S,2R)-1-(6-chloro-4-(3-hydroxypropyl)-1,1-dioxido-3,4-dihydro-2H-benzo[e][1,2,4]thiadiazin-2-yl)-2-(6-fluoro-2,3-dimethylphenyl)propyl)-1,3,4-oxadiazol-2 (3H)-one], the IC50 is not above 1000 nM in assay [1] (Homo sapiens, COLO 320DM) and less than 20 nM in assay [2].

For `COCCCN1CN([C@H](c2n[nH]c(=O)o2)[C@H](C)c2c(F)ccc(C)c2C)S(=O)(=O)c2ccc(Cl)cc21` [Example 30, 5-((1S,2R)-1-(6-chloro-4-(3-methoxypropyl)-1,1-dioxido-3,4-dihydro-2H-benzo[e][1,2,4]thiadiazin-2-yl)-2-(6-fluoro-2,3-dimethylphenyl)propyl)-1,3,4-oxadiazol-2 (3H)-one], the IC50 was not above 1000 nM in assay [1] (Homo sapiens, COLO 320DM) and less than 20 nM in assay [2].

For `Cc1ccc(F)c([C@@H](C)[C@@H](c2n[nH]c(=O)o2)N2CCOc3c(ccc(Cl)c3C(C)O)S2(=O)=O)c1C` (single isomer, unassigned) [Example 29], the IC50 was more than 50000 nM in assay [1] and 10000 to 100000 nM in assay [2].

For the compound `Cc1ccc(F)c([C@@H](C)[C@@H](c2n[nH]c(=O)o2)N2CC(=O)N(C)c3cc(Cl)ccc3S2(=O)=O)c1C` [Example 14, 5-((1S,2R)-1-(7-chloro-5-methyl-1,1-dioxido-4-oxo-4,5-dihydrobenzo[f][1,2,5]thiadiazepin-2 (3H)-yl)-2-(6-fluoro-2,3-dimethylphenyl)propyl)-1,3,4-oxadiazol-2 (3H)-one], the IC50 lay in the range of 1000 to 5000 nM in assay [1] (Homo sapiens, COLO 320DM) and 20 to 100 nM in assay [2].

On to `Cc1ccc(F)c(C(C)[C@@H](c2n[nH]c(=O)o2)N2CCOc3c(ccc(Cl)c3C(C)(C)O)S2(=O)=O)c1C` (stereo partly drawn) [Example 40, 5-((1S)-1-(7-chloro-6-(2-hydroxypropan-2-yl)-1,1-dioxido-3,4-dihydro-2H-benzo[b][1,4,5]oxathiazepin-2-yl)-2-(6-fluoro-2,3-dimethylphenyl)propyl)-1,3,4-oxadiazol-2 (3H)-one], for which the IC50 in assay [1] (Homo sapiens, COLO 320DM) is 5000 to 10000 nM; in assay [2], less than 20 nM.

For the compound `CC(=O)c1cc(Cl)cc2c1S(=O)(=O)N([C@H](c1n[nH]c(=O)o1)[C@H](C)c1c(F)ccc(C)c1C)CN2C1CC1` [Example 95, 5-((1S,2R)-1-(8-acetyl-6-chloro-4-cyclopropyl-1,1-dioxido-3,4-dihydro-2H-benzo[e][1,2,4]thiadiazin-2-yl)-2-(6-fluoro-2,3-dimethylphenyl)propyl)-1,3,4-oxadiazol-2 (3H)-one], the IC50 was not above 1000 nM in assay [1] (Homo sapiens, COLO 320DM) and less than 20 nM in assay [2].

Take `Cc1ccc(F)c([C@@H](C)[C@@H](c2n[nH]c(=O)o2)N2CN(C)c3c(ccc(Cl)c3C)S2(=O)=O)c1C` [Example 32, 5-((1S,2R)-1-(6-chloro-4,5-dimethyl-1,1-dioxido-3,4-dihydro-2H-benzo[e][1,2,4]thiadiazin-2-yl)-2-(6-fluoro-2,3-dimethylphenyl)propyl)-1,3,4-oxadiazol-2 (3H)-one]: the concentration for half-maximal inhibition (IC50) fell in the range of 10000 to 50000 nM in assay [1] (Homo sapiens, COLO 320DM) and 20 to 100 nM in assay [2].

As to `Cc1ccc(F)c([C@@H](C)[C@@H](c2n[nH]c(=O)o2)N2CN(C)c3cc(Cl)cc(C(C)O)c3S2(=O)=O)c1C` (stereo partly drawn) [Example 68, 5-((1S,2R)-1-(6-chloro-8-(1-hydroxyethyl)-4-methyl-1,1-dioxido-3,4-dihydro-2H-benzo[e][1,2,4]thiadiazin-2-yl)-2-(6-fluoro-2,3-dimethylphenyl)propyl)-1,3,4-oxadiazol-2 (3H)-one], the IC50 is not above 1000 nM in assay [1] (Homo sapiens, COLO 320DM) and 20 to 100 nM in assay [2].

As for `Cc1ccc(F)c([C@@H](C)[C@@H](c2n[nH]c(=O)o2)N2CN(CC(F)F)c3cc(Cl)ccc3S2(=O)=O)c1C` [Example 88, 5-((1S,2R)-1-(6-chloro-4-(2,2-difluoroethyl)-1,1-dioxido-3,4-dihydro-2H-benzo[e][1,2,4]thiadiazin-2-yl)-2-(6-fluoro-2,3-dimethylphenyl)propyl)-1,3,4-oxadiazol-2 (3H)-one], the IC50 in assay [1] (Homo sapiens, COLO 320DM) is not above 1000 nM; in assay [2] it was less than 20 nM.

In the case of `Cc1ccc(F)c([C@@H](C)[C@@H](c2n[nH]c(=O)o2)N2C3CCCN3c3cc(Cl)ccc3S2(=O)=O)c1C` (stereo partly drawn) [Example 20, 5-((1S,2R)-1-(8-chloro-5,5-dioxido-1,2,3,3a-tetrahydro-4H-benzo[e]pyrrolo[2,1-c][1,2,4]thiadiazin-4-yl)-2-(6-fluoro-2,3-dimethylphenyl)propyl)-1,3,4-oxadiazol-2 (3H)-one], the IC50 in assay [1] (Homo sapiens, COLO 320DM) was 1000 to 5000 nM; in assay [2], less than 20 nM.

For the origin of these results see patent publication US20260085067A1, “CYCLIC SULFONAMIDE RIBONUCLEOTIDE REDUCTASE (RNR) INHIBITORS AND USES THEREOF” (Boundless Bio, Inc., priority 2022, published 2026).
